Our source for the Ki, minimal effective dose and melting point values is patent US8119635B2, “Diazabicyclic central nervous system active agents” (Abbott Laboratories, priority 2000, dated 2012).

Where a name gives a salt, the structure may show the parent alone. Read-outs that look alike come from different tables or passages of the source. Bounds are passed on as bounds.

The target of series [1] is T1, neuronal nicotinic acetylcholine receptors (Rattus norvegicus, UniProt P09483+P12390).
T1 construct: crude synaptic membrane preparations from whole rat brain; from tissue; host or cells: whole rat brain, crude synaptic membranes
T1 sequence (P09483 31-630): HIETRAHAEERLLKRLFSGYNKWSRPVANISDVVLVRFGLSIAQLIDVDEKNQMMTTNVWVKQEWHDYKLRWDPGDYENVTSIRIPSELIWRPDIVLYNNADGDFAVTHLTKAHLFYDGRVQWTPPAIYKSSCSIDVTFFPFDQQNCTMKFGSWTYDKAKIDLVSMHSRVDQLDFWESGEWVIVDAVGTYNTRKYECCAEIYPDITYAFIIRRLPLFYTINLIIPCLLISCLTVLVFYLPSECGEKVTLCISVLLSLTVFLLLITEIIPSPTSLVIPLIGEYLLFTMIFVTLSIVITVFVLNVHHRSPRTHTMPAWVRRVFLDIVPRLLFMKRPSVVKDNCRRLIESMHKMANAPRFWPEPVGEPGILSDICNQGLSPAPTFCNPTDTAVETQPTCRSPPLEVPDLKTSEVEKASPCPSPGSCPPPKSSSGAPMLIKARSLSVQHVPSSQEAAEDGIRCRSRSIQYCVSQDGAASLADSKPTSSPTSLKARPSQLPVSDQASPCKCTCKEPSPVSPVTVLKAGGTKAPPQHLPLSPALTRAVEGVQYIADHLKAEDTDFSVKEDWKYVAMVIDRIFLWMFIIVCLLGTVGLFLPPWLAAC
T1 sequence (P12390 25-500): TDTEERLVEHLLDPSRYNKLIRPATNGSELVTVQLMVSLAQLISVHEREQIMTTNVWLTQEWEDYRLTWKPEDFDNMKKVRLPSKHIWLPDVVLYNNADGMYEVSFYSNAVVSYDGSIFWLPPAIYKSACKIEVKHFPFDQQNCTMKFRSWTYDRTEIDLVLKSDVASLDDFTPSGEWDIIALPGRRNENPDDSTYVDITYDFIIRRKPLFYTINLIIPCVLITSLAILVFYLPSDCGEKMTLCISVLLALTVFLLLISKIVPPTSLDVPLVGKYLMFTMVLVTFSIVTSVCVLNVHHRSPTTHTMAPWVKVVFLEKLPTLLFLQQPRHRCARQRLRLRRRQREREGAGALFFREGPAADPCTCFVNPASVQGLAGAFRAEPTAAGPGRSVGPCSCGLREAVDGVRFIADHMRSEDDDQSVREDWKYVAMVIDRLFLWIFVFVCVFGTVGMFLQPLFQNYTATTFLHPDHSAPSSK
In words: Binding of [3H]-cytisine to neuronal nicotinic acetylcholine receptors, crude synaptic membranes from whole rat brain.

A further series relates to mice. In words: Mouse hot plate paradigm (analgesia). In kind it is in vivo. As to conditions: ip, 0.5 h, intraperitoneal, dosed 30 minutes prior to testing, hot plate 55° C., latency until the tenth jump, read-out: (MED) minimally effective dose, mouse hot plate. The protocol:
An in vivo protocol was utilized to determine the effectiveness of nicotinic acetylcholine receptor ligands as analgesic agents in the mouse hot plate paradigm.
Separate groups of mice, (n=8/group) were utilized for each dose group. All drugs were administered by the intraperitoneal route of administration. Test drugs were dissolved in water to make a 6.2 mM stock solution. Animals were dosed with this solution (10 mL/kg body weight) for a 62 micromol/kg dose. Lower doses were administered similarly, following serial dilution of the stock solution in half-log increments. Animals were dosed 30 minutes prior to testing in the hot plate. The hot-plate utilized was an automated analgesia monitor (Model #AHP16AN, Omnitech Electronics, Inc. of Columbus, Ohio). The temperature of the hot plate was maintained at 55° C. and a cut-off time of 180 seconds was utilized. Latency until the tenth jump was recorded as the dependent measure. An increase in the tenth jump latency relative to the control was considered an effect.

For the next series, the system named is Male Sprague-Dawley rats. Kind of series: Formalin test (analgesia). In kind it is in vivo. As to conditions: Rattus norvegicus, ip, intraperitoneally 5 minutes before injection of 50 μL 5% formalin into rear paw, nocifensive behaviors, read-out: (MED) minimally effective dose, formalin test. On the procedure: Another in vivo protocol utilized to determine the effectiveness of nicotinic acetylcholine receptor ligands as analgesic agents was the formalin test.
Male Sprague-Dawley rats (Charles River, Portage, Mich.) weighing 200 to 400 grams were used for all experiments. After a 20 minute period of acclimation to individual cages, 50 μL of a 5% formalin solution was injected subcutaneous into the dorsal aspect of one of the rear paws and the rats were then returned to the clear observation cages suspended above mirror panels. […] Phase 1 of the formalin test was defined as the period of time immediately after injection of formalin until 10 minutes after the formalin injection (i.e., 0-10 minutes after formalin). Phase 2 was defined as the 20 minute period from 30 to 50 minutes after formalin injection. The investigator recorded nocifensive behaviors in the injected paw of four animals during the session by observing each animal for one 15 second observation period during each 1 minute interval. Nocifensive behaviors recorded included flinching, licking or biting the injected paw. In dose-response studies, the test compound (or saline) was administered intraperitoneally 5 minutes before injection of formalin.

For the compound `c1cncc(N2C[C@H]3CCN[C@H]3C2)c1` [Example 28, (3aR,6aR)-5-(3-pyridinyl)octahydropyrrolo[3,4-b]pyrrole dihydrochloride], the Ki in series [1] ([3H]-CYT 1.25 nM, whole rat brain membranes, 60 minutes at 4° C., IC50 converted to Ki by Cheng and Prusoff correction, read-out: Average Ki) is 340 pM. In addition, the minimal effective dose turned out to be 6.2 µmol/kg in the series on mice and 1.9 µmol/kg in the series on Male Sprague-Dawley rats.

The compound `Cc1cc(N2C[C@H]3CCN[C@H]3C2)cnc1Cl` [Example 27, (3aR,6aR)-5-(6-chloro-5-methyl-3-pyridinyl)octahydropyrrolo[3,4-b]pyrrole hydrochloride] gave a Ki in series [1] of 100 pM. The minimal effective dose with mice was 1.9 µmol/kg.

As to `Cc1cc(N2C[C@@H]3CCN[C@@H]3C2)cnc1Cl` [Example 26, (3aS,6aS)-5-(6-chloro-5-methyl-3-pyridinyl)octahydropyrrolo[3,4-b]pyrrole hydrochloride], the Ki in series [1] stood at 620 pM. Moreover, the minimal effective dose in the series on mice worked out at 19 µmol/kg.

`Clc1ccc(N2C[C@H]3CCN[C@H]3C2)cn1` (relative stereo) [Example 13, cis-5-(6-chloro-3-pyridinyl)octahydropyrrolo[3,4-b]pyrrole hydrochloride] registered an inhibition constant Ki in series [1] of 1500 pM. In addition, the figures for the minimal effective dose in the series with mice and in the series with Male Sprague-Dawley rats were 6.2 µmol/kg and 0.62 µmol/kg, respectively.

`COc1cc(N2C[C@H]3CNC[C@H]3C2)cnc1Cl` [Example 10, cis-2-(6-chloro-5-methoxy-3-pyridinyl)octahydropyrrolo[3,4-c]pyrrole dihydrochloride] showed a Ki in series [1] of 30 pM. For the same compound, the minimal effective dose in the series on mice turned out to be 6.2 µmol/kg; in the series on Male Sprague-Dawley rats it was 1.9 µmol/kg.

`COc1cncc(N2C[C@H]3CCN[C@H]3C2)c1` [Example 29, (3aR,6aR)-5-(5-methoxy-3-pyridinyl)octahydropyrrolo[3,4-b]pyrrole dihydrochloride] registered a Ki in series [1] of 350 pM. Also, the minimal effective dose worked out at 19 µmol/kg in the series on mice and 6.2 µmol/kg in the series on Male Sprague-Dawley rats.

In turn, `Clc1cc(N2C[C@H]3CCN[C@H]3C2)cnc1Cl` [Example 24, (3aR,6aR)-5-(5,6-dichloro-3-pyridinyl)octahydropyrrolo[3,4-b]pyrrole hydrochloride] showed a Ki in series [1] of 160 pM. For the same compound, the minimal effective dose in the series with mice and with Male Sprague-Dawley rats was 6.2 µmol/kg in each case.

In series [1], `COc1cncc(N2C[C@H]3CNC[C@H]3C2)c1` [Example 7, cis-2-(5-methoxy-3-pyridinyl)octahydropyrrolo[3,4-c]pyrrole dihydrochloride] showed a Ki of 80 pM. Also, the minimal effective dose in the series with mice came out at 19 µmol/kg; in the series on Male Sprague-Dawley rats, 6.2 µmol/kg.

Regarding `Cc1cc(N2C[C@H]3CNC[C@H]3C2)cnc1Cl` [Example 11, cis-2-(6-chloro-5-methyl-3-pyridinyl)octahydropyrrolo[3,4-c]pyrrole dihydrochloride], the Ki in series [1] is 40 pM. Also, the minimal effective dose with mice was 6.2 µmol/kg.

For `CCCOc1cncc(N2C[C@H]3CNC[C@H]3C2)c1` [Example 9, cis-2-(5-propoxy-3-pyridinyl)octahydropyrrolo[3,4-c]pyrrole semi(fumarate)], in series [1], the affinity, expressed as Ki, was 40 pM. Also, the minimal effective dose in the series on mice turned out to be 19 µmol/kg.

`c1cncc(N2C[C@H]3CCCN[C@H]3C2)c1` (relative stereo) [Example 23, cis-6-(3-pyridinyl)octahydro-1H-pyrrolo[3,4-b]pyridine dihydrochloride] showed a Ki in series [1] of 4100 pM. Further, the minimal effective dose in the series on mice was 62 µmol/kg; in the series with Male Sprague-Dawley rats, 0.62 µmol/kg.

In the case of `CN1C[C@@H]2CN(c3cccnc3)C[C@@H]2C1.Cl` [Example 2, cis-2-methyl-5-(3-pyridinyl)octahydropyrrolo[3,4-c]pyrrole hydrochloride], the melting point was in the range of 207 to 209 °C. In series [1], this compound had a Ki of 26000 pM.

With `CCOc1cncc(N2C[C@H]3CNC[C@H]3C2)c1` [Example 8, cis-2-(5-ethoxy-3-pyridinyl)octahydropyrrolo[3,4-c]pyrrole dihydrochloride], the melting point was in the range of 226 to 227 °C. In series [1], the Ki worked out at 40 pM. The minimal effective dose in the series on mice came to 6.2 µmol/kg.

Take `Cl.Cl.FC(F)(F)COc1cncc(N2C[C@H]3CNC[C@H]3C2)c1` [Example 12, cis-2-[5-(2,2,2-trifluoroethoxy)-3-pyridinyl]octahydropyrrolo[3,4-c]pyrrole dihydrochloride]: the melting point was 233 to 234 °C (dec.). The compound further returned a Ki in series [1] of 50 pM. The minimal effective dose with mice was 62 µmol/kg.

For the compound `Cl.Clc1ccc(N2C[C@H]3CNC[C@H]3C2)cn1` [Example 3, cis-2-(6-chloro-3-pyridinyl)octahydropyrrolo[3,4-c]pyrrole hydrochloride], the melting point is 230 to 236 °C (dec.). Moreover, in series [1], the affinity corresponds to a Ki of 200 pM. In the series with mice, the minimal effective dose was 6.2 µmol/kg.

As to `Cc1cncc(N2C[C@H]3CCN[C@H]3C2)c1` [Example 58, (3aR,6aR)-5-(5-methyl-3-pyridinyl)octahydropyrrolo[3,4-b]pyrrole trihydrochloride], in series [1], the Ki amounted to 530 pM. Also, the minimal effective dose with Male Sprague-Dawley rats is 1.9 µmol/kg.

As for `Cl.Cl.c1ccc2ncc(N3C[C@H]4CNC[C@H]4C3)cc2c1` [Example 5, cis-2-(3-quinolinyl)octahydropyrrolo[3,4-c]pyrrole dihydrochloride], the melting point was over 260 °C. In addition, the affinity in series [1] corresponds to a Ki of 1700 pM.

As for `N#Cc1cncc(N2CC[C@H]3CN[C@H]3C2)c1` (relative stereo) [Example 62, (cis)-5-[3,8-diazabicyclo[4.2.0]oct-3-yl]nicotinonitrile fumarate], the Ki in series [1] amounted to 100 pM. For the same compound, in the series on Male Sprague-Dawley rats, the minimal effective dose was found to be 0.19 µmol/kg.

`C=Cc1cncc(N2C[C@@H]3CNC[C@@H]32)c1` [Example 69, (1S,5R)-6-(5-vinyl-3-pyridinyl)-3,6-diazabicyclo[3.2.0]heptane fumarate] returned a Ki in series [1] of 3200 pM. Also, in the series on Male Sprague-Dawley rats, the minimal effective dose was over 19 µmol/kg.

In series [1], `Clc1ccc(N2C[C@@H]3CCN[C@@H]3C2)cn1` [Example 15, (3aS,6aS)-5-(6-chloro-3-pyridinyl)octahydropyrrolo[3,4-b]pyrrole dihydrochloride] displayed an inhibitory constant (Ki) of 6300 pM. In addition, the figures for the minimal effective dose in the series with mice and in the series on Male Sprague-Dawley rats were 19 µmol/kg and over 6.2 µmol/kg, respectively.

`c1cncc(N2CC[C@H]3CN[C@H]3C2)c1` (relative stereo) [Example 33, (cis)-3-(3-pyridinyl)-3,8-diazabicyclo[4.2.0]octane tris(4-methylbenzenesulfonate)] came in with a Ki in series [1] of 20 pM. The minimal effective dose in the series with mice is 1.9 µmol/kg; in the series with Male Sprague-Dawley rats it was 0.62 µmol/kg.

As to `Clc1ccc(N2C[C@H]3CCN[C@H]3C2)cn1` [Example 14, (3aR,6aR)-5-(6-chloro-3-pyridinyl)octahydropyrrolo[3,4-b]pyrrole dihydrochloride], the Ki in series [1] was 1100 pM. Besides, the minimal effective dose in the series with mice was 1.9 µmol/kg; in the series on Male Sprague-Dawley rats, 0.62 µmol/kg.

`N#Cc1cc(N2C[C@H]3CCN[C@H]3C2)cnc1Br` [Example 51, 5-((3aR,6aR)-hexahydropyrrolo[3,4-b]pyrrol-5(1H)-yl)-2-bromonicotinonitrile fumarate] registered a Ki in series [1] of 120 pM. The minimal effective dose with Male Sprague-Dawley rats is 0.62 µmol/kg.

The compound `Clc1ccc(N2C[C@H]3CCCN[C@H]3C2)cn1` (relative stereo) [Example 22, cis-6-(6-chloro-3-pyridinyl)octahydro-1H-pyrrolo[3,4-b]pyridine dihydrochloride] yielded a Ki in series [1] of 11000 pM. Besides, the figures for the minimal effective dose in the series with mice and in the series on Male Sprague-Dawley rats were 19 µmol/kg and 1.9 µmol/kg, respectively.

Regarding `c1cncc(N2C[C@@H]3CCNC[C@@H]32)c1` (relative stereo) [Example 44, (cis)-8-(3-pyridinyl)-3,8-diazabicyclo[4.2.0]octane bis(4-methylbenzenesulfonate)], in series [1], the affinity corresponds to a Ki of 230 pM. Further, the minimal effective dose in the series on Male Sprague-Dawley rats was 6.2 µmol/kg.

Compound `N#Cc1cncc(N2C[C@H]3CCN[C@H]3C2)c1` [Example 37, 5-((3aR,6aR)-hexahydropyrrolo[3,4-b]pyrrol-5(1H)-yl)nicotinonitrile] displayed a Ki in series [1] of 1200 pM. The minimal effective dose in the series with Male Sprague-Dawley rats turned out to be 6.2 µmol/kg.

In the case of `N#Cc1cncc(N2C[C@@H]3CCNC[C@@H]32)c1` [Example 50, 5-[(1R,6S)-3,8-diazabicyclo[4.2.0]oct-8-yl]nicotinonitrile fumarate], in series [1], the Ki was found to be 510 pM. Moreover, the minimal effective dose with Male Sprague-Dawley rats amounted to 6.2 µmol/kg.

As to `Brc1cncc(N2C[C@H]3CNC[C@H]32)c1` [Example 53, (1R,5S)-6-(5-bromo-3-pyridinyl)-3,6-diazabicyclo[3.2.0]heptane fumarate], the Ki in series [1] was 3100 pM. Further, in the series on Male Sprague-Dawley rats, the minimal effective dose is over 19 µmol/kg.
